# Reference: ChEMBL document CHEMBL3045520, “Comparative three-dimensional quantitative structure-activity relationship study of safeners and herbicides” (J Agric Food Chem, 2000)
# Experiment: Binding affinity to SafBP receptor in Zea mays (maize) seedlings by [3H]Saf(R-29148) binding assay
row,SMILES,IC50 [nM]
1,CC1(C(Cl)Cl)OCCO1,4400
2,CC1CN(C(=O)C(Cl)Cl)C(C)(C)O1 (centres undefined),120
3,O=C(C(Cl)Cl)N1CCOC12CCCCC2,6000
4,C=CCN(CC=C)C(=O)C(Cl)Cl [DICHLORMID],10
